From paper PMC6895213, “Four New Picrotoxane-Type Sesquiterpenes From Dendrobium nobile Lindl” (Frontiers in Chemistry, 2019)

Key:
α-glycosidase = α-glycosidase inhibitory activity (PNPG method); type: biochemical; conditions: yeast enzyme EC 3.2.1.20
Experimental: Optical rotations were measured on a MCP 5100 modular compact polarimeter (Anton Paar, America). IR spectra were taken on a Nicolet 380 FT-IR instrument (Thermo, USA) as KBr discs. NMR spectra were recorded on a Bruker Avance III 500 MHz NMR spectrometer (Bruker, German). ESIMS and HRESIMS were recorded with amaZon SL (Bruker) or Compact QqTOF (Bruker). ECD spectra were measured by APL Chiascan (Applied Photophysics Ltd., England). Semi-preparative HPLC was carried out using a C18 column (Cosmosil-pack, 10 × 250 mm, 5 μm, 4 mL/min, Nacalai Tesque). C18 gel (20–45 μm, Fuji SilysiSa Chemical Co., Ltd., Greenville, NC, UA), Silica gel (60–80, 200–300 mesh, Qingdao Marine Chemical Co., Ltd., Qingdao, China), Sephadex LH-20 (Merck, Kenilworth, NJ, USA) were used for column chromatograghy. α-glycosidase (Sigma-Aldrich, UA) used for the bioactivity was derived from yeast and its EINECS (EC) unmber is 3.2.1.20.
The method optimized by Jong et al. ([2007]) was performed in vitro to test the α-glucosidase inhibitory activity of compounds 1–8. Acarbose was used as positive control.
(§1) Compounds 1–8 were tested for inhibitory activity against α-glycosidase using the PNPG method and for cytotoxic effects on SGC-7901, K562, A549, BEL-7402, and Hela cell lines using the MTT method (See Supplementary Table 1 in the Supplementary Material).

A549 cell line = assay: MTT cytotoxicity assay, A549; type: cell-based; conditions: MTT method, A549 cells
Experimental: (§2) The MTT method optimized by Mosmann ([1983]) was performed in vitro to test the cytotoxic activity of compounds 1–8. Cisplatin was used as a positive control.
as §1

BEL-7402 cell line = assay: MTT cytotoxicity assay, BEL-7402; type: cell-based; conditions: MTT method, BEL-7402 cells
Experimental: as §2, §1

K562 cell line = assay: MTT cytotoxicity assay, K562; type: cell-based; conditions: MTT method, K562 cells
Experimental: as §2, §1

Hela cell line = assay: MTT cytotoxicity assay, Hela; type: cell-based; conditions: MTT method, Hela cells
Experimental: as §2, §1

SGC-7901 cell line = assay: MTT cytotoxicity assay, SGC-7901; type: cell-based; conditions: MTT method, SGC-7901 cells
Experimental: as §2, §1

[1] = test system: activated murine macrophage-like cell line RAW 264.7; design: method as in Zhang et al., 2007b; conditions: activated RAW 264.7 cells; ref Zhang et al., 2007b; cited from earlier work

SMILES	IC50 (α-glycosidase) [µM]	IC50 (A549 cell line) [µM]	IC50 (BEL-7402 cell line) [µM]	IC50 (K562 cell line) [µM]	IC50 (Hela cell line) [µM]	IC50 (SGC-7901 cell line) [µM]	IC50 (A549 cell line; Homo sapiens) [µM]	IC50 (BEL-7402 cell line; Homo sapiens) [µM]	IC50 (K562 cell line; Homo sapiens) [µM]	melting point [°C]	IC50 (Hela cell line; Homo sapiens) [µM]	IC50 (SGC-7901 cell line; Homo sapiens) [µM]	inhibitory effects on NO production [1]
C[C@H]1O[C@H](O[C@H]2[C@H](O)[C@@H](O)[C@@H](O[C@H]3[C@H](O)[C@@H](O)C(O)O[C@@H]3CO)O[C@@H]2CO)[C@H](O)[C@@H](O)[C@@H]1N[C@H]1C=C(CO)[C@@H](O)[C@H](O)[C@H]1O (stereo partly shown) [Acarbose, reference compound]	720												
N.N.[Cl][Pt][Cl] [Cisplatin, reference compound]		1.93	4.02	3.08	11.3	4.11							
CC(C)C1C2OC(=O)C1C1CC=CC1(C)C2NC=O (stereo not shown) [Compound 1, Dendroterpene A]	> 1000						> 50	> 50	> 50	185 to 186	> 50	> 50	
CC(C)C1C2OC(=O)C1C1(O)CC=CC1(C)C2NC=O (stereo not shown) [Compound 2, Dendroterpene B]	> 1000						> 50	> 50	> 50	200 to 201	> 50	> 50	
CC(C)C1C2OC(=O)C1C1CCC3C(=O)OC2C31C (stereo not shown) [Compound 3, Dendroterpene C]	970						> 50	> 50	> 50		> 50	> 50	
CC(C)C1C2OC(=O)C1C1CCC3(O)C(=O)OC2C13C (stereo not shown) [Compound 4, Dendroterpene D]	> 1000						> 50	> 50	> 50	167 to 168	> 50	> 50	
COc1cccc(CCc2cc(OC)c(O)c3c2C(Cc2cccc(OC)c2)c2cc(O)c(O)c(OC)c2O3)c1 (stereo not shown) [Compound 5, nobilin E]	30						29	20.1	10.4		22.2	17.3	exhibited inhibitory effects on NO production
COc1cccc(CC2C3=C(Oc4c2cc(O)c(O)c4OC)C(=O)c2cc(O)c4cc(O)ccc4c2C3=O)c1 (stereo not shown) [Compound 6, dendrocandin V]	680						> 50	> 50	28.2		> 50	> 50	
CC(=O)/C=C/[C@@]1(O)C(C)=CC(=O)CC1(C)C [Compound 7, S(+)-dehydrovomifoliol]	> 1000						> 50	> 50	> 50		> 50	> 50	
Oc1ccc(CCOCCc2ccc(O)cc2)cc1 [Compound 8, di-[2-(4-hydroxyphenyl)] ethyl ether]	300						> 50	> 50	> 50		> 50	> 50	
